Consider nine compounds from patent US5128447A, “Synthetic peptide antagonists of neurokinin A, salts thereof and respective preparation processes” (A. Menarini Industrie Farmaceutiche Riunite S.r.l., priority 1989, dated 1992).

Non-standard residues stand in square brackets, D forms with d. Residues, ends and D or L forms follow the SMILES beside them.

As usually defined, the EC50 is the concentration that produces a half-maximal response.

The target in this assay is T1, neurokinin A receptor (NK-2 receptor) (Rattus norvegicus, UniProt P16610).
T1 sequence (P16610 1-390): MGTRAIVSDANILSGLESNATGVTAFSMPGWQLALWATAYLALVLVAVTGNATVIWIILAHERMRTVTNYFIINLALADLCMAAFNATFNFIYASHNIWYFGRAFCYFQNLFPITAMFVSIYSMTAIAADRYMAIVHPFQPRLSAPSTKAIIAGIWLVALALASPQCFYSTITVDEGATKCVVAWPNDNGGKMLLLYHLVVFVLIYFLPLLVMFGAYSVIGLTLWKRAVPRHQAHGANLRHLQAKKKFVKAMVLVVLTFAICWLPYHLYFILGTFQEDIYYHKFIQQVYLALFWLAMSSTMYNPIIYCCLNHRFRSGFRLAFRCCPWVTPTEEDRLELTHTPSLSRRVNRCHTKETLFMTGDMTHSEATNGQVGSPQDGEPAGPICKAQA
The experiment in a line: cell-based. The protocol:
The capacity of the peptides described in the present invention of interacting with the neurokinin A receptor as agonists or antagonists was evaluated by means of an in vitro assay using a preparation, in which the biological response produced by tachykinin and related peptides is exclusively determined by the neuro-kinin A receptor (NK-2 receptor). Such a preparation is the isolated vas deferens of rats, where the tachykinins produce a potentiation of the contractions caused by the intramural nerves following an electrical stimulation. The determination of the activity of the peptides in this preparation was carried out as described by Rovero et al. (Neuropeptides 10, 355, 1987). The agonistic activity of the peptides assayed is expressed as pD2, which represents the […] of the molar concentration of agonist which produces 50% of the maximum effect. […] The pD2 were calculated according to Van Rossum (Arch. Int. Pharmacodyn. 143, 249, 1963), and the pA 2 were calculated from the analysis of the Schild plot (O. Arunlakshana and H. O. Schild, Br. J. Pharmacol., 14, 48, 1959).
The agonists produce a potentiation of the contractions caused by the nerve of the isolated vas deferens of rats. The antagonistic activity is evaluated as the capacity of the product to produce a parallel displacement towards the right of the concentration/response curve of neurokinin A after a contact time of 15 minutes.
In the case of `CC(C)[C@H](NC(=O)[C@@H](Cc1c[nH]c2ccccc12)NC(=O)[C@H](Cc1ccc(O)cc1)NC(=O)[C@H](CC(=O)O)NC(=O)[C@@H](N)[C@@H](C)O)C(=O)N[C@H](Cc1c[nH]c2ccccc12)C(=O)N[C@H](Cc1c[nH]c2ccccc12)C(=O)N[C@@H](CCCNC(=N)N)C(N)=O` [H--Thr--Asp--Tyr--DTrp--Val--DTrp--DTrp--Arg--NH2] (H-TDY[dW]V[dW][dW]R-NH2), the Kb is 251 nM.

In the case of `CC(C)[C@H](NC(=O)[C@@H](Cc1c[nH]c2ccccc12)NC(=O)[C@H](Cc1ccc(O)cc1)NC(=O)[C@@H](N)CC(=O)O)C(=O)N[C@H](Cc1c[nH]c2ccccc12)C(=O)N[C@H](Cc1c[nH]c2ccccc12)C(=O)N[C@H](Cc1c[nH]c2ccccc12)C(N)=O` [H-Asp-Tyr-DTrp-Val-DTrp-DTrp-DTrp-NH2] (H-DY[dW]V[dW][dW][dW]-NH2), the Kb was 155 nM.

As for `CC(C)[C@H](NC(=O)[C@@H](Cc1c[nH]c2ccccc12)NC(=O)[C@H](Cc1ccc(O)cc1)NC(=O)[C@H](CC(=O)O)NC(=O)[C@@H](N)CCCNC(=N)N)C(=O)N[C@H](Cc1c[nH]c2ccccc12)C(=O)N[C@H](Cc1c[nH]c2ccccc12)C(=O)N[C@@H](Cc1ccccc1)C(N)=O` [H--Arg--Asp--Tyr--DTrp--Val--DTrp--DTrp--Phe--NH2] (H-RDY[dW]V[dW][dW]F-NH2), the Kb was 575 nM.

Turning to `CSCC[C@H](NC(=O)[C@@H](Cc1c[nH]c2ccccc12)NC(=O)[C@@H](Cc1c[nH]c2ccccc12)NC(=O)[C@@H](NC(=O)[C@@H](Cc1c[nH]c2ccccc12)NC(=O)[C@H](Cc1ccc(O)cc1)NC(=O)[C@H](CC(=O)O)NC(=O)[C@@H](N)CCCNC(=N)N)C(C)C)C(N)=O` [H--Arg--Asp--Tyr--DTrp--Val--DTrp--DTrp--Met--NH2] (H-RDY[dW]V[dW][dW]M-NH2), the Kb was 251 nM.

For the compound `CC(C)[C@H](NC(=O)[C@@H](Cc1c[nH]c2ccccc12)NC(=O)[C@H](Cc1ccc(O)cc1)NC(=O)[C@H](CC(=O)O)NC(=O)[C@@H](N)CCCNC(=N)N)C(=O)N[C@H](Cc1c[nH]c2ccccc12)C(=O)N[C@H](Cc1c[nH]c2ccccc12)C(=O)N[C@@H](CCCNC(=N)N)C(N)=O` [H-Arg-Asp-Tyr-DTrp-Val-DTrp-DTrp-Arg-NH2] (H-RDY[dW]V[dW][dW]R-NH2), the Kb was 316 nM.

With `CC(C)[C@H](NC(=O)[C@@H](Cc1c[nH]c2ccccc12)NC(=O)[C@H](Cc1ccc(O)cc1)NC(=O)[C@@H](N)CC(=O)O)C(=O)N[C@H](Cc1c[nH]c2ccccc12)C(=O)N[C@H](Cc1c[nH]c2ccccc12)C(=O)N[C@@H](Cc1ccc(O)cc1)C(N)=O` [H--Asp--Tyr--DTrp--Val--DTrp--DTrp--Tyr--NH2] (H-DY[dW]V[dW][dW]Y-NH2), the Kb was 191 nM.

Consider `CSCC[C@H](NC(=O)[C@H](CC(C)C)NC(=O)CNC(=O)[C@@H](NC(=O)[C@H](Cc1ccccc1)NC(=O)[C@H](CO)NC(=O)[C@@H](N)CC(=O)O)C(C)C)C(N)=O` [NKA(4-10), reference compound], for which the EC50 was 1050 nM.

In the case of `CC(C)[C@H](NC(=O)[C@@H](Cc1c[nH]c2ccccc12)NC(=O)[C@H](Cc1ccc(O)cc1)NC(=O)[C@@H](N)CC(=O)O)C(=O)N[C@H](Cc1c[nH]c2ccccc12)C(=O)N[C@H](Cc1c[nH]c2ccccc12)C(=O)N[C@@H](CCCNC(=N)N)C(N)=O` [H--Asp--Tyr--DTrp--Val--DTrp--DTrp--Arg--NH2] (H-DY[dW]V[dW][dW]R-NH2), the Kb is 251 nM.

Take `CC(C)[C@H](NC(=O)[C@@H](Cc1c[nH]c2ccccc12)NC(=O)[C@H](Cc1ccc(O)cc1)NC(=O)[C@H](CC(=O)O)NC(=O)[C@@H](N)CCCCN)C(=O)N[C@H](Cc1c[nH]c2ccccc12)C(=O)N[C@H](Cc1c[nH]c2ccccc12)C(=O)N[C@@H](CCCNC(=N)N)C(N)=O` [H--Lys--Asp--Tyr--DTrp--Val--DTrp--DTrp--Arg--NH2] (H-KDY[dW]V[dW][dW]R-NH2): the Kb is 339 nM.
